Laboratory results taken from ChEMBL document CHEMBL4689842, “EUbOPEN Chemogenomics Library wave 1” (2021).

Legend:
[1] = test system: U2OS; experiment: Incucyte cell viability with U2OS; assay type: toxicity, cell-based; settings: human, 10 µM, compound concentration 10 uM
[2] = test system: HEK-293T; experiment: Incucyte cell viability with HEK293T; assay type: toxicity, cell-based; settings: human, 10 µM, compound concentration 10 uM
[3] = 0 h, replicate number 2, timepoint 0 hours
[4] = 12 h, replicate number 2, timepoint 12 hours
[5] = 18 h, replicate number 1, timepoint 18 hours
[6] = 24 h, replicate number 1, timepoint 24 hours
[7] = 0 h, replicate number 1, timepoint 0 hours
[8] = 6 h, replicate number 1, timepoint 6 hours
[9] = 12 h, replicate number 1, timepoint 12 hours
[10] = 18 h, replicate number 2, timepoint 18 hours
[11] = 6 h, replicate number 2, timepoint 6 hours
[12] = 24 h, replicate number 2, timepoint 24 hours
Also: filed as whole numbers so only -1 and 0 and 1 occur.

Row | Compound | Growth Rate [1, 3] | Growth Rate [1, 4] | Growth Rate [1, 5] | Growth Rate [1, 6] | Growth Rate [2, 7] | Growth Rate [2, 8] | Growth Rate [2, 9] | Growth Rate [2, 5] | Growth Rate [2, 6] | Growth Rate [1, 9] | Growth Rate [1, 10] | Growth Rate [1, 8] | Growth Rate [2, 3] | Growth Rate [2, 10] | Growth Rate [1, 7] | Growth Rate [1, 11] | Growth Rate [1, 12] | Growth Rate [2, 11] | Growth Rate [2, 4] | Growth Rate [2, 12]
1 | Cl.O=c1c2cccn2c2ccccc2n1CCCN1CCC(c2ccc(Cl)cc2)CC1 | 0 | 1 | 1 | 1 | 0 | 0 | 0 | 0 | 0 |  |  |  |  |  |  |  |  |  |  | 
2 | CCN1CCN(Cc2ccc(Nc3ncc(F)c(-c4cc(F)c5nc(C)n(C(C)C)c5c4)n3)nc2)CC1.CS(=O)(=O)O | 1 |  | 0 | 0 | 0 | 0 | 0 | 0 | 0 | 1 | 1 |  |  |  |  |  |  |  |  | 
3 | O=C(Cc1ccc(-c2ccc(OCCN3CCOCC3)cc2)cn1)NCc1ccccc1 [TIRBANIBULIN] | 0 |  | 0 | 0 |  | 0 | 0 | 0 | 0 | 0 |  | 1 |  |  |  |  |  |  |  | 
4 | Cn1nc(C(=O)NCc2ccc(C(=O)O)cc2)cc1-c1ccc2[nH]ccc2c1 [BI 4395] | 0 |  | 1 | 1 | 0 |  | 0 | 0 | 0 | 1 |  | 1 | 1 | 1 |  |  |  |  |  | 
5 | O=C(Nc1ccc(-c2ccnc(Nc3ccc(N4CCOCC4)cc3)n2)cc1)[C@@H]1CCCN1 | 0 |  | 1 | 1 | 1 | 0 | 0 | 0 | 0 | 1 |  |  |  |  |  |  |  |  |  | 
6 | CCOC(=O)c1c(C)[nH]c2ccc3c(c12)CN1CCc2cc(OC)ccc2C1O3 (stereo not drawn) |  |  | 0 | 0 |  | 0 | 0 | 0 | 0 | 0 |  |  | 0 |  | 1 | 1 |  |  |  | 
7 | C=CCn1c(=O)c2cnc(Nc3ccc(N4CCN(C)CC4)cc3)nc2n1-c1cccc(C(C)(C)O)n1 [ADAVOSERTIB] |  |  | 0 | 0 |  | 0 | 0 | 0 | 0 | 0 |  | 0 |  |  | 0 |  |  |  |  | 
8 | CCCS(=O)(=O)Nc1ccc(F)c(C(=O)c2c[nH]c3ncc(Cl)cc23)c1F [PLX-4720] |  | 1 | 0 | 0 | 0 | 0 | 0 | 0 | 0 | 0 |  | 1 | 1 |  | 0 |  |  |  |  | 
9 | CCc1cccc(CC)c1NC(=O)c1nn(C)c2c1CCc1cnc(Nc3ccc(N4CCN(C)CC4)cc3OC)nc1-2 | 0 |  | 0 | 0 |  | 0 | 0 | 0 | 0 | 0 |  | 1 | 0 |  |  |  |  |  |  | 
10 | COc1ccc(-c2ccc3c(N4CCOCC4)nc(N4C[C@@H](C)O[C@@H](C)C4)nc3n2)cc1CO [Ku-0063794] |  |  | 0 | 0 |  | 0 | 0 | 0 | 0 | 1 |  | 1 |  |  | 0 |  |  |  |  | 
11 | CN1CCC(=C2c3ccccc3CC(=O)c3sccc32)CC1.O=C(O)/C=C/C(=O)O [KETOTIFEN FUMARATE] |  |  | 1 | 1 |  | 0 | 0 | 0 | 0 | 1 |  |  | 1 |  | 1 | 0 | 0 |  |  | 
12 | COc1cccc2cc(-c3nc([C@H]4CC[C@H](C(=O)O)CC4)n4ncnc(N)c34)[nH]c12 [OSI-027] |  |  | 0 | 0 | 1 | 0 | 0 | 0 | 0 | 1 | 1 | 1 |  |  | 1 |  |  |  |  | 
13 | CCCS(=O)(=O)c1nc(NC2CC2)cc(-c2ccc3c(ccn3C3CC(C)(C)NC(C)(C)C3)c2)n1 | 0 |  | 0 | 0 |  | 0 | 0 | 0 | 0 | 0 |  | 0 | 0 |  |  |  |  |  |  | 
14 | COc1ccc(S(=O)(=O)N(CCO)c2ccccc2CN(C)C/C=C/c2ccc(Cl)cc2)cc1.O=P(O)(O)O | 1 | 1 | 0 | 0 |  | 0 | 0 | 0 | 0 | 0 |  | 0 |  |  | 0 | 1 |  |  |  | 
15 | CN1C2CCC1CC(OC(c1ccc(F)cc1)c1ccc(F)cc1)C2.Cl (stereo not drawn) |  | 0 | 0 | 0 |  | 0 | 0 | 0 | 0 | 1 |  |  | 1 |  |  | 0 |  |  |  | 
16 | Cc1cc(C)c(S(=O)(=O)N(Cc2ccc(-c3cccc(S(C)(=O)=O)c3)cc2)Cc2ccc(C(F)(F)F)o2)c(C)c1 | 1 |  | 1 | 1 | 0 | 0 | 0 | 0 | 0 | 1 |  |  |  |  | 0 | 1 |  | 1 |  | 
17 | CCn1c(=O)c(-c2ccc(-c3cncs3)cc2Cl)cc2cnc(Nc3ccc(N4CCN(C)CC4)cc3)nc21 | 1 | 1 | 0 | 0 | 0 | 0 |  |  | 1 | 0 |  |  |  | 1 |  |  |  |  | 0 | 0
18 | COCC(=O)NC/C=C/c1ccc2ncnc(Nc3ccc(Oc4ccc(C)nc4)c(C)c3)c2c1 [CP-724714] | 1 |  | 0 | 1 |  | 0 | 0 | 0 | 0 | 1 |  | 1 |  |  | 0 |  | 0 |  |  | 
19 | Cn1nc(C(F)(F)F)cc1-c1cnc(N2CCc3cc(S(=O)(=O)Nc4c(F)cc(Cl)cc4F)cc(N4CCCC4=O)c32)nc1 [TP-020] | 1 | 0 | 1 | 1 | 0 | 0 | 0 | 0 | 0 | 1 | 0 | 0 | 1 |  |  |  | 0 | 1 |  | 
20 | CN1CCN(C(=O)C(C)(C)c2ccc(C(=O)Nc3cn4cc(-c5cc(C(C)(C)C)cc(C(C)(C)C)c5)ccc4n3)cc2)CC1 [T3-CLK-N] | 0 |  | 0 | 0 |  | 0 | 0 | 0 | 0 | 1 | 1 |  | 1 |  |  |  | 1 |  |  | 
21 | Cc1ccc2nc(NCCN)c3ncc(C)n3c2c1.O=C(O)C(F)(F)F.O=C(O)C(F)(F)F |  |  | 0 | 0 | 0 | 0 | 0 | 0 | 0 | 0 |  | 0 | 1 |  | 0 |  |  |  |  | 
